In ChEMBL document CHEMBL3991601, “The target landscape of clinical kinase drugs” (Science, 2017) one finds Kd data, which are given here for eleven compounds.

Each structure is given as a SMILES string. Activity calls are given as the source filed them. Cut-off read from the data, not from the text of the source, for most assays here: actives have a measured Kd and inactives only a lower limit.

In assay [1] the target is T1, Peroxisomal acyl-coenzyme A oxidase 1 (Homo sapiens, UniProt Q15067).
T1 sequence (Q15067 whole entry): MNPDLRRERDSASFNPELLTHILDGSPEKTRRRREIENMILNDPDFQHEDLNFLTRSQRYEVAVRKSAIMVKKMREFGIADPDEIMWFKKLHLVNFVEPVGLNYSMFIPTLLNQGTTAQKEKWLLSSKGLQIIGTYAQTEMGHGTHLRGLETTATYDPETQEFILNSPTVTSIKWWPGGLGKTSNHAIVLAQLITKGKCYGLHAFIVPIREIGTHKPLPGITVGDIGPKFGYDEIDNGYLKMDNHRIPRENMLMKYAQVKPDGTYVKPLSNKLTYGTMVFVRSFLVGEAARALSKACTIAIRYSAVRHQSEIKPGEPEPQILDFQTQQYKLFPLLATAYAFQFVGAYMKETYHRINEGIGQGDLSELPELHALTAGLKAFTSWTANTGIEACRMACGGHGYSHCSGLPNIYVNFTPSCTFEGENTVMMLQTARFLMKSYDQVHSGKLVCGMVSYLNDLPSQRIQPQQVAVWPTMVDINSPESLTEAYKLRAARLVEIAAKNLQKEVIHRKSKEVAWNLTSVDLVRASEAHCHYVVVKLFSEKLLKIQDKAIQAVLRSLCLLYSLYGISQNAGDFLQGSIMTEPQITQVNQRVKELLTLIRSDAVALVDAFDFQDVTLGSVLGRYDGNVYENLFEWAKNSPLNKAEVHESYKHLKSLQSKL

The target in assay [2] is Serine/threonine-protein kinase/endoribonuclease IRE2 (Homo sapiens, UniProt Q76MJ5).
Chain of Serine/threonine-protein kinase/endoribonuclease IRE2 (Q76MJ5 whole entry): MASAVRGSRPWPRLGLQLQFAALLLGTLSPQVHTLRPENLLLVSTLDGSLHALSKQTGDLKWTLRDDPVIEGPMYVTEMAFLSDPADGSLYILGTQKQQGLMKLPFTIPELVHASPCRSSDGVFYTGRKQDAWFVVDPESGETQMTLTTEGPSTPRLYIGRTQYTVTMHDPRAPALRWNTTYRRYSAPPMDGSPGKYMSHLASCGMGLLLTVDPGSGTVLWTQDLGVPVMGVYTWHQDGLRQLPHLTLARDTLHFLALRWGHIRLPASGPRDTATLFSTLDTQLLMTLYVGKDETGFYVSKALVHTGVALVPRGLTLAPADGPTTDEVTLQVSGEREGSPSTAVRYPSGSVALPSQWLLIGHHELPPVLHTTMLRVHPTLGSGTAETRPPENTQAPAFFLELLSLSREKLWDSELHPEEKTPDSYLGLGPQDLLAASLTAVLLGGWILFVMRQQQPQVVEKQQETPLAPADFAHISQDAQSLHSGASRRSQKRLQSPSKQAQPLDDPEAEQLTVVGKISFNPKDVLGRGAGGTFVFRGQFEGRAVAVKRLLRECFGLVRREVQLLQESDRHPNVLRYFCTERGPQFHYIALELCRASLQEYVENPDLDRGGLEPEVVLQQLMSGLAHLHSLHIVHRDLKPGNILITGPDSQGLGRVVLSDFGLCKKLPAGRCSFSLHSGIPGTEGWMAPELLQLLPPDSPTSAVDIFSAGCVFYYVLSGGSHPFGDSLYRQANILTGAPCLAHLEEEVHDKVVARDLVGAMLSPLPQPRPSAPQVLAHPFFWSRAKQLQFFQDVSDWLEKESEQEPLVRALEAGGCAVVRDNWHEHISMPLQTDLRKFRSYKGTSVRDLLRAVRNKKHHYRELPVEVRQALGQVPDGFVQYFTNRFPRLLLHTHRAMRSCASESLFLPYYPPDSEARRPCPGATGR
Another assay addresses Myosin-14 (Homo sapiens, UniProt Q7Z406).
The target of the next assay is T2, Activin receptor type-1B (Homo sapiens, UniProt P36896).
T2 sequence (P36896 whole entry): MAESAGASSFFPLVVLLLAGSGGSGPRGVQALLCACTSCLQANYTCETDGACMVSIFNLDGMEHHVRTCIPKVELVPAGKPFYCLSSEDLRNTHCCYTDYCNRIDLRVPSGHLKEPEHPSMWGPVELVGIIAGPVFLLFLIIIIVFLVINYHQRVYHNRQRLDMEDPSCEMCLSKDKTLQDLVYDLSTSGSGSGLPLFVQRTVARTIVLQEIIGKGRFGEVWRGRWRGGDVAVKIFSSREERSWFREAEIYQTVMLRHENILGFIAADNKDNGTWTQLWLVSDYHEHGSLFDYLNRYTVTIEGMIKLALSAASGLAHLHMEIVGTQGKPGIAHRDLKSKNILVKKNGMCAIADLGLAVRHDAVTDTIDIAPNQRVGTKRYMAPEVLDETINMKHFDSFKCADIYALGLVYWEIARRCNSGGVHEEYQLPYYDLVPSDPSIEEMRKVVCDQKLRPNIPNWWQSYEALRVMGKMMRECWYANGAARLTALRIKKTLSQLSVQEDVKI

Assay [3] has as its target Serine/threonine-protein kinase N2 (Homo sapiens, UniProt Q16513).
In assay [4] the target is T3, Inhibitor of nuclear factor kappa-B kinase subunit epsilon (Homo sapiens, UniProt Q14164).
T3 sequence (Q14164 whole entry): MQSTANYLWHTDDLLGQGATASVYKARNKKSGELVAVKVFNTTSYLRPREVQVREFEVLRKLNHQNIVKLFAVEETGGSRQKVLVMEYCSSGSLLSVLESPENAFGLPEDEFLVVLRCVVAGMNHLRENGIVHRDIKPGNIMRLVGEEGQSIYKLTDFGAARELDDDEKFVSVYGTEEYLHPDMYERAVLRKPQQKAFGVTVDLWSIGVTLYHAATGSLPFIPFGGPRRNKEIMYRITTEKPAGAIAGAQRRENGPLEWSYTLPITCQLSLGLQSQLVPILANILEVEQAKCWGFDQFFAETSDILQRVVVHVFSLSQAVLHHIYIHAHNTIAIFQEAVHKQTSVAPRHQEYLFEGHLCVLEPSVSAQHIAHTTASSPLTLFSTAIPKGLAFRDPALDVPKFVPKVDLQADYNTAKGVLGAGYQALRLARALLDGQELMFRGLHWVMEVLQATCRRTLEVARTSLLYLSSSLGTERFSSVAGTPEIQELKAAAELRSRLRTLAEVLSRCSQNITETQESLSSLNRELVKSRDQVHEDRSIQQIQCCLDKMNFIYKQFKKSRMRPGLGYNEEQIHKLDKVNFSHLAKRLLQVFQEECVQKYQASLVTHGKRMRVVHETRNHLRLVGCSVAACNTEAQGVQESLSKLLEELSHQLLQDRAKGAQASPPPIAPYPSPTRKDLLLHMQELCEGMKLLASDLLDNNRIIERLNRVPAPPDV

For assay [5], the target named is Cyclin-dependent kinase 5 (Homo sapiens, UniProt Q00535).
Chain of Cyclin-dependent kinase 5 (Q00535 whole entry): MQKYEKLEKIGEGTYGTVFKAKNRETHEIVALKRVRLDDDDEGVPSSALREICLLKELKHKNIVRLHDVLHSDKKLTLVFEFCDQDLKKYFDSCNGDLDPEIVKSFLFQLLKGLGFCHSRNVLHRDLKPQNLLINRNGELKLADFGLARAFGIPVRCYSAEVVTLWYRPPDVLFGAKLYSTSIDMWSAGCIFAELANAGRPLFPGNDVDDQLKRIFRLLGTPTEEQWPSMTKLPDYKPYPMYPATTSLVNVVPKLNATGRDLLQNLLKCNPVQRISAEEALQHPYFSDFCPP
The target of assay [6] is Mitogen-activated protein kinase 10 (Homo sapiens, UniProt P53779).
Chain of Mitogen-activated protein kinase 10 (P53779 whole entry): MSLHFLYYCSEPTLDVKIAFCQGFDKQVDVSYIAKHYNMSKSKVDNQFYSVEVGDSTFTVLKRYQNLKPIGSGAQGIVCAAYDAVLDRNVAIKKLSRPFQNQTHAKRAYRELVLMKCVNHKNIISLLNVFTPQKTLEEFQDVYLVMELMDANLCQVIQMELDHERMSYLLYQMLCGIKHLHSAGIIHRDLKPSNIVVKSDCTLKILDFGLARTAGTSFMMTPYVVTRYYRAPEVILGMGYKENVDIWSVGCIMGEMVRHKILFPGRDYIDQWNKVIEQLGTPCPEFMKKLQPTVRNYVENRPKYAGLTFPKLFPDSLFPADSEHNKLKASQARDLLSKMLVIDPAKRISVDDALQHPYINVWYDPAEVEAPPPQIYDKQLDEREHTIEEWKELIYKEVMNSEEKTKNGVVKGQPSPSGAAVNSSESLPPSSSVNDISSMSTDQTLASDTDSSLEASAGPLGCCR
Assay [7] deals with T4, Interleukin-1 receptor-associated kinase 4 (Homo sapiens, UniProt Q9NWZ3).
T4 sequence (Q9NWZ3 whole entry): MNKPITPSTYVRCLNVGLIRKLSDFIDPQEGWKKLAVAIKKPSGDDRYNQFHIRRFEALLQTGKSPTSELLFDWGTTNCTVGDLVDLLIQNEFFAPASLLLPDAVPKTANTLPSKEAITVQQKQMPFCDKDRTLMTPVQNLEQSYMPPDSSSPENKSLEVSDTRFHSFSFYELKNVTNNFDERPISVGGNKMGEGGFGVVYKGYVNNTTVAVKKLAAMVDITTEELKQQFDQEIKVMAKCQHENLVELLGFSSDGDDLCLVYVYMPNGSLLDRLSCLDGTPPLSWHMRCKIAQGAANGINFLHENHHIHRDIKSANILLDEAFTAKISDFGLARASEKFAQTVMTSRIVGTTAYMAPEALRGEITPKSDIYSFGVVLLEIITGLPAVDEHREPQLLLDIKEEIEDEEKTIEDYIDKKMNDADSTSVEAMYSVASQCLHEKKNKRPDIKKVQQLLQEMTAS

The target in assay [8] is Mitogen-activated protein kinase 9 (Homo sapiens, UniProt P45984).
Chain of Mitogen-activated protein kinase 9 (P45984 whole entry): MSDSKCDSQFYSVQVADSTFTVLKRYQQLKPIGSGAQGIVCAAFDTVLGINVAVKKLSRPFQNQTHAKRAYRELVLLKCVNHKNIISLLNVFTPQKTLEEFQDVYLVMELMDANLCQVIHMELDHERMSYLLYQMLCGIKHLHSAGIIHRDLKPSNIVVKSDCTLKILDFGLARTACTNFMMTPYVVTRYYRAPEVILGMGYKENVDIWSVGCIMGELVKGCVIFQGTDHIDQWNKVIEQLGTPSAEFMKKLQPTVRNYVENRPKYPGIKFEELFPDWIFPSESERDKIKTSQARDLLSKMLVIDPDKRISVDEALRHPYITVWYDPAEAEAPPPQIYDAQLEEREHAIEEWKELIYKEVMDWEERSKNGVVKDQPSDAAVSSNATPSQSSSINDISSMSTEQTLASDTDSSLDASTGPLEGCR
Note: in the data inactive means no Kd found up to 30 µM.

Chain of Serine/threonine-protein kinase N2 (Q16513 whole entry): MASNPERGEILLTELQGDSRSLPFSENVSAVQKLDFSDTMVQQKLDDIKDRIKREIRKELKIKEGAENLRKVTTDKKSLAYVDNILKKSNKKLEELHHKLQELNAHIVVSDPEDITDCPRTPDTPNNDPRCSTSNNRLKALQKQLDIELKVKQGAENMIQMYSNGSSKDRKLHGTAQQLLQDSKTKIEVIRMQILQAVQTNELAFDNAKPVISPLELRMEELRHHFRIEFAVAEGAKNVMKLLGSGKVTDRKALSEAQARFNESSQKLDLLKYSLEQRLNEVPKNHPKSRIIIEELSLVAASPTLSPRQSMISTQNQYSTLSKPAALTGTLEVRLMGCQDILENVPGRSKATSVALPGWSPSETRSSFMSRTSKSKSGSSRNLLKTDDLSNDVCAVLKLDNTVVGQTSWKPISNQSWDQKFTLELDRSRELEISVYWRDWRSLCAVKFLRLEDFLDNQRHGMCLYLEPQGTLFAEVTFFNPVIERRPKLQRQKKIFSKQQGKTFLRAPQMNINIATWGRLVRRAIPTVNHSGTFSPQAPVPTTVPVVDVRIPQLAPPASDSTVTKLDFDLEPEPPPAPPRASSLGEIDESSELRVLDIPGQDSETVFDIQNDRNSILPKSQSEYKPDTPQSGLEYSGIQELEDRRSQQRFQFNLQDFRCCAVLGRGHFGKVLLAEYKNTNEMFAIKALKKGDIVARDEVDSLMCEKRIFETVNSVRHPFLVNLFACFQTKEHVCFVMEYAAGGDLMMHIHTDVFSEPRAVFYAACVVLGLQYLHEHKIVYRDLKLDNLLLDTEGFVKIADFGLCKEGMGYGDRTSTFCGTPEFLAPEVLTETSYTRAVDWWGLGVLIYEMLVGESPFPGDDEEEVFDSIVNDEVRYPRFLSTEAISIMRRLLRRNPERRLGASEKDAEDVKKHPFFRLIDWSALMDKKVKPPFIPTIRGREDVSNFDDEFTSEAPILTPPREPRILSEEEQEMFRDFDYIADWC
Chain of Myosin-14 (Q7Z406 whole entry): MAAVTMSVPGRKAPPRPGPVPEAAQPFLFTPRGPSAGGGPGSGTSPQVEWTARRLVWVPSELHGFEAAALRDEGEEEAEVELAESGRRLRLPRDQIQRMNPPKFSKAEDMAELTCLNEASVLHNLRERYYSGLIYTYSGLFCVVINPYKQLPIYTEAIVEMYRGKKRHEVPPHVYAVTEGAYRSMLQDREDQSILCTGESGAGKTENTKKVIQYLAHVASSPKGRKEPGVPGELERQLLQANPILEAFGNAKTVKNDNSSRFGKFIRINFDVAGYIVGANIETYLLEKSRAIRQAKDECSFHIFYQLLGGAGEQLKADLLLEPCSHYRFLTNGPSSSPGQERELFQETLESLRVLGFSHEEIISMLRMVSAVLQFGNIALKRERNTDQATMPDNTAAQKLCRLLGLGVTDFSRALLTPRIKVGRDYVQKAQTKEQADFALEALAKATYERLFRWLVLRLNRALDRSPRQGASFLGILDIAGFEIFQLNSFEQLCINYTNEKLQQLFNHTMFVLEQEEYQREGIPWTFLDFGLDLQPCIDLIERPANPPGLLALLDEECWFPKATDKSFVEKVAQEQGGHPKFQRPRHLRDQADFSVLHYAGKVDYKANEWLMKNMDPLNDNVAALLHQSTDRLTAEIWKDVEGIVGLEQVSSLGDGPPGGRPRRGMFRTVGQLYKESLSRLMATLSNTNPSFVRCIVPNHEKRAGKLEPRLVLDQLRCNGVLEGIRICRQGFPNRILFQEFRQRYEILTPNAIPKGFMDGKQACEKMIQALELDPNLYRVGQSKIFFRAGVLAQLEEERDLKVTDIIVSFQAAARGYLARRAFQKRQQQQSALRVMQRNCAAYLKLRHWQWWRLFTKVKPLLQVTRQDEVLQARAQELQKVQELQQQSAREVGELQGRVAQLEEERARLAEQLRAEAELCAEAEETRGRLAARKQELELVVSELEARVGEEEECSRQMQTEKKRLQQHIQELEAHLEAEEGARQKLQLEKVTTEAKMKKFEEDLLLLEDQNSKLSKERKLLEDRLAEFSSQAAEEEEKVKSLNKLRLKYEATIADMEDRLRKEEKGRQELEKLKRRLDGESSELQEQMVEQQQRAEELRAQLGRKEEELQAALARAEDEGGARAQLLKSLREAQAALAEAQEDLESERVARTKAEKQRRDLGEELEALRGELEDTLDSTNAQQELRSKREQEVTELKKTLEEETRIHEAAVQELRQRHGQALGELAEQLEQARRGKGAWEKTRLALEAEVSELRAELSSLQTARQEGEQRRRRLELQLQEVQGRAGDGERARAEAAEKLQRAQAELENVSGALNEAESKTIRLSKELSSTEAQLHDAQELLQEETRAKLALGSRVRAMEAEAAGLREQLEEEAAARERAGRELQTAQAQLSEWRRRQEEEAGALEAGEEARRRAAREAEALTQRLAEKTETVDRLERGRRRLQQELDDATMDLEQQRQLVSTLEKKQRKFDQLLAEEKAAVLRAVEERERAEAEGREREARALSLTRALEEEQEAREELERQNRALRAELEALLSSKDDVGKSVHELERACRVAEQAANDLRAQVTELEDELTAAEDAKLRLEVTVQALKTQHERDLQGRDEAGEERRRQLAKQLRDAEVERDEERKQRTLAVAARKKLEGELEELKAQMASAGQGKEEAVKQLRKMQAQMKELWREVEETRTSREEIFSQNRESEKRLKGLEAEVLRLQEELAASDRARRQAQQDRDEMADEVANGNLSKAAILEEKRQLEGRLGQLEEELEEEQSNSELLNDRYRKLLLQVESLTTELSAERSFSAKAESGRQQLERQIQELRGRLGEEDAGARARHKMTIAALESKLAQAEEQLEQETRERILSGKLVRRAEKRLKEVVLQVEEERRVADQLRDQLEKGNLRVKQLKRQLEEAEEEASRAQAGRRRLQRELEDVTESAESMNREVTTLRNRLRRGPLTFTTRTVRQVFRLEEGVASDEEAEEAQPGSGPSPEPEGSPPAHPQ

With `O=C(NC[C@H](O)CO)c1ccncc1Nc1ccc(I)cc1F` [PIMASERTIB], the Kd (in [1]; in [2]; at Myosin-14; at Activin receptor type-1B; in assay [3]; in [4]) was > 30 µM (inactive) in each case. Besides, the Kd in assay [5], in [6], in [7] and in assay [8] was > 30 µM (inactive) each time.
With `c1cc(OCCN2CCCCC2)cc(-c2n[nH]c3ccc(-c4nc[nH]n4)cc23)c1` [CC-401], the Kd (in assay [1]; in [2]; at Myosin-14; at Activin receptor type-1B; in assay [3]; in assay [4]) was > 30 µM (inactive) each time. For the same compound, the Kd in assay [5] is > 30 µM (inactive); in [6], 3.24 µM (active); in assay [7], > 30 µM (inactive); in assay [8], 0.34 µM (active).
`CC[C@@](C)(Nc1ccnc(-c2c[nH]c3ncccc23)n1)C(=O)NCC(F)(F)F` [DECERNOTINIB]: the Kd (in assay [1]; in [2]; on Myosin-14; on Activin receptor type-1B; in assay [3]; in [4]) was > 30 µM (inactive) each time. Moreover, the Kd in [5], in assay [6], in assay [7] and in assay [8] was > 30 µM (inactive) throughout.
As for `CC(C)(O)CC(=O)NCCn1ccc2ncnc(Nc3ccc(Oc4cccc(C(F)(F)F)c4)c(Cl)c3)c21` [TAK-285], the Kd (in [1]; in assay [2]; on Myosin-14; on Activin receptor type-1B; in assay [3]; in [4]) was > 30 µM (inactive) each time. Moreover, the Kd in assay [5], in [6], in assay [7] and in assay [8] was > 30 µM (inactive) each time.
Consider `CC(C)CC(=O)Nc1[nH]nc2c1CN(C(=O)C1CCN(C)CC1)C2(C)C` [PHA-793887], for which the Kd (in assay [1]; in assay [2]; on Myosin-14; at Activin receptor type-1B; in assay [3]; in assay [4]) was > 30 µM (inactive) throughout. Also, the Kd in assay [5] was 0.135 µM (active); in [6], > 30 µM (inactive); in assay [7], > 30 µM (inactive); in [8] it was > 30 µM (inactive).
As for `COc1cc2ncnc(Nc3ccc(O)cc3)c2cc1OC` [WHI-P131], the Kd (in assay [1]; in assay [2]; on Myosin-14; at Activin receptor type-1B; in assay [3]; in assay [4]) was > 30 µM (inactive) each time. Besides, the Kd is > 30 µM (inactive) in assay [5], > 30 µM (inactive) in assay [6], 34.1 µM (active) in [7] and > 30 µM (inactive) in [8].
For `COc1cccc(Nc2ncnn3ccc(CN4CC[C@@H](N)[C@H](O)C4)c23)c1` [BMS-690514], the Kd (in assay [1]; in assay [2]; on Myosin-14; on Activin receptor type-1B; in assay [3]; in assay [4]) was > 30 µM (inactive) in each case. For the same compound, the Kd in [5], in assay [6], in assay [7] and in assay [8] was > 30 µM (inactive) throughout.
For `Cc1ccc(C(=O)Nc2ccc(Oc3cc4cnn(C)c4cc3-c3cn[nH]c3)c(F)c2)c(=O)n1-c1ccc(F)cc1` [MERESTINIB], the Kd (in assay [1]; in [2]; on Myosin-14; at Activin receptor type-1B; in [3]; in assay [4]) was > 30 µM (inactive) in each case. In addition, the Kd in assay [5], in assay [6], in assay [7] and in assay [8] was > 30 µM (inactive) each time.
Turning to `C=CC(=O)Nc1cccc(Nc2nc(Nc3ccc(N4CCN(C(C)=O)CC4)cc3OC)ncc2C(F)(F)F)c1` [ROCILETINIB], the Kd (in [1]; in assay [2]; at Myosin-14; at Activin receptor type-1B; in [3]; in assay [4]) was > 30 µM (inactive) each time. Besides, the Kd in assay [5], in assay [6], in [7] and in assay [8] was > 30 µM (inactive) throughout.
Consider `C=CC(=O)Nc1cc(Nc2nccc(-c3cn(C)c4ccccc34)n2)c(OC)cc1N(C)CCN(C)C` [OSIMERTINIB], for which the Kd (in [1]; in assay [2]; on Myosin-14; on Activin receptor type-1B; in assay [3]; in assay [4]) was > 30 µM (inactive) in each case. Moreover, the Kd in assay [5], in assay [6], in assay [7] and in assay [8] was > 30 µM (inactive) throughout.
With `COc1cc(Nc2ncc(F)c(Nc3ccc4c(n3)N(COP(=O)(O)O)C(=O)C(C)(C)O4)n2)cc(OC)c1OC` [FOSTAMATINIB], the Kd in assay [1] was > 30 µM (inactive); in assay [2], > 30 µM (inactive); on Myosin-14, > 30 µM (inactive); on Activin receptor type-1B it was > 30 µM (inactive); in [3], > 30 µM (inactive); in assay [4] it was 1.32 µM (active). Also, the Kd in [5] is > 30 µM (inactive); in [6], > 30 µM (inactive); in assay [7], > 30 µM (inactive); in assay [8] it was 1.53 µM (active).
